Literature values, collected in patent publication US20110104279A1, “HEALING POWDER AND METHOD OF USE THEREOF” (priority 2009, published 2011).

What was measured:
[1] = system: acute mediastinitis wounds; settings: 19 patients, wounds packed every 3 to 4 hours
[2] = system: full thickness wounds in the backs of pigs; settings: wounds 25 mm square, 9 mm deep, packed and covered with Opsite

SMILES | average time of treatment to near complete debridement, granulation tissue formation and eradication of bacterial infection [1] [days] | wound healing compared with wounds covered with Opsite alone [2]
OC[C@H]1O[C@@](CO)(O[C@H]2O[C@H](CO)[C@@H](O)[C@H](O)[C@H]2O)[C@@H](O)[C@@H]1O [granular sugar, sucrose] | 7.6 | 
N=C(NCCCCCCNC(=N)NC(=N)Nc1ccc(Cl)cc1)NC(=N)Nc1ccc(Cl)cc1.O=C(O)[C@H](O)[C@@H](O)[C@H](O)[C@H](O)CO.O=C(O)[C@H](O)[C@@H](O)[C@H](O)[C@H](O)CO [chlorhexidine gluconate] |  | delayed healing
